Measurements taken from ChEMBL document CHEMBL1134380, “Discovery and optimization of a novel series of thrombin receptor (par-1) antagonists: potent, selective peptide mimetics based on indole and indazole templates” (J Med Chem, 2001).
pIC50: −log10 of the molar value.

What was measured:
[1] = Calcium flux by RASMC Calcium mobilization assay at 2.0 nM alpha thrombin.; type: functional; set-up: unit not given here
[2] = In vitro antagonist activity against U-46,619 induced gel-filtered Platelet (GFP) aggregation at 50 uM; NA=Inactive; type: functional
[3] = molecular target: T1, Proteinase-activated receptor 1 (Homo sapiens, UniProt P25116); test: Binding Affinity of ligand against Protease-activated Receptor (PAR-1) using [3H]-s-(p-F-Phe)-homoarginine-L-homoarginine-KY-NH2, 10 nM (Kd= 15 nM)
T1 sequence (P25116 whole entry): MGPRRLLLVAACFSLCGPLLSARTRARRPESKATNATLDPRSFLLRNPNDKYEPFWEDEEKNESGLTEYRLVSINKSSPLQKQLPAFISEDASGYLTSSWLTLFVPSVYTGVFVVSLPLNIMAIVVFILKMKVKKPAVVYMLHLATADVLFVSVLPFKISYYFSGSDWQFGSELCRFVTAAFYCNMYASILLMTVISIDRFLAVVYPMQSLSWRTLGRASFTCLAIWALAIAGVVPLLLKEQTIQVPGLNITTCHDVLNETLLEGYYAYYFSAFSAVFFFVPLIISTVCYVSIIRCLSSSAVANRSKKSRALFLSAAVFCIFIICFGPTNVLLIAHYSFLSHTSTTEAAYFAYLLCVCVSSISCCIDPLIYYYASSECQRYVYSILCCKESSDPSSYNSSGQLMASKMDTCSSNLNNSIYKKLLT

[4] = In vitro antagonist activity against SFLLRN-NH2 induced gel-filtered platelet (GFP) aggregation at 2 uM; type: functional
[5] = Proliferation by RASMC proliferation assay at 0.8 nM alpha thrombin.; set-up: unit not given here
[6] = Calcium flux by HMVEC Calcium mobilization assay at 2.0 nM alpha thrombin.; type: functional; set-up: unit not given here
[7] = molecular target: T1, Proteinase-activated receptor 1; test: Binding affinity against Protease-activated receptor (PAR-1) using [3H]-s-(p-F-Phe)-homoarginine-L-homoarginine-KY-NH2, 10 nM (Kd= 15 nM)
[8] = In vitro antagonist activity against collagen induced gel-filtered platelet (GFP) aggregation at 3 ug/mL
[9] = In vitro antagonist activity against U-46,619 induced gel-filtered Platelet (GFP) aggregation at 0.3 uM; type: functional
[10] = in vitro antagonist activity against U-46,619 induced gel-filtered Platelet (GFP) aggregation at 0.3 uM; type: functional

NCC[C@H](NC(=O)[C@H](Cc1ccc(F)c(F)c1)NC(=O)Nc1ccc2c(CN3CCCC3)nn(Cc3c(Cl)cccc3Cl)c2c1)C(=O)NCc1ccccc1 [RWJ-58259]
Ca2+ flux [1]: 0.07 | IC50 [2]: Not Active | pIC50 [3]: 6.82 | pIC50 [4]: 6.96 | Proliferation [5]: 2.3

N=C(N)NCCC[C@H](NC(=O)[C@H](Cc1ccc(F)c(F)c1)NC(=O)Nc1ccc2c(CN3CCCC3)cn(Cc3c(Cl)cccc3Cl)c2c1)C(=O)NCc1ccccc1
Ca2+ flux [6]: 0.09 | Ca2+ flux [1]: 0.13 | pIC50 [7]: 6.09 | IC50 [2]: Not Active | pIC50 [4]: 6.74 | Proliferation [5]: 2.4

COc1ccc(C[C@H](NC(=O)Nc2ccc3c(CN4CCCC4)cn(Cc4c(Cl)cccc4Cl)c3c2)C(=O)N[C@@H](CCCNC(=N)N)C(=O)NCc2ccccc2)cc1 [RWJ-54003]
Ca2+ flux [6]: 0.33 | IC50 [8]: 46300 nM | Ca2+ flux [1]: 0.93 | pIC50 [7]: 5.89 | IC50 [2]: Not Active | pIC50 [4]: 6.52 | Proliferation [5]: 7.3

COc1ccc(C[C@H](NC(=O)Nc2ccc3c(CN4CCCC4)cn(Cc4ccc(F)cc4)c3c2)C(=O)N[C@@H](CCCN=C(N)N)C(=O)NCc2ccccc2)cc1
Ca2+ flux [6]: 0.54 | Ca2+ flux [1]: 7.8 | pIC50 [7]: 5.66 | IC50 [2]: Not Active | pIC50 [4]: 6.57 | Proliferation [5]: > 30

COc1ccc(C[C@H](NC(=O)Nc2ccc3c(CNC4CCCC4)cn(Cc4ccc(F)cc4)c3c2)C(=O)N[C@@H](CCCN=C(N)N)C(=O)NCc2ccccc2)cc1
IC50 [8]: 41400 nM | pIC50 [7]: 4.97 | pIC50 [9]: 4.31 | pIC50 [4]: 5.66

N=C(N)NCCC[C@H](NC(=O)[C@H](Cc1ccc(F)c(F)c1)NC(=O)Nc1ccc2c(CN3CCCC3)cn(Cc3c(Cl)cccc3Cl)c2c1)C(=O)NCc1ccncc1
Ca2+ flux [6]: 0.17 | Ca2+ flux [1]: 0.21 | pIC50 [7]: 7.40 | pIC50 [10]: 4.88 | pIC50 [4]: 6.44 | Proliferation [5]: 6.5

N=C(N)NCCC[C@H](NC(=O)[C@H](Cc1ccccc1)NC(=O)Nc1ccc2c(CN3CCCC3)cn(Cc3ccc(F)cc3)c2c1)C(=O)NCc1ccccc1
IC50 [8]: 12700 nM | pIC50 [7]: 6.15 | pIC50 [4]: 6.52

COc1ccc(C[C@H](NC(=O)Nc2ccc3c(CN4CCCC4)cn(Cc4ccc(OC(F)(F)F)cc4)c3c2)C(=O)N[C@@H](CCCN=C(N)N)C(=O)NCc2ccccc2)cc1
IC50 [8]: 24200 nM | pIC50 [7]: 5.62 | pIC50 [9]: 4.59 | pIC50 [4]: 5.49
